Experimental data from US9170257B2 (priority 2012, dated 2015).

How the values were obtained:
[1] = system: MPTP-induced depletion of DA and DOPAC; conditions: 80 mg/kg i.p.; cited from earlier work
[2] = rat, rodent studies; cited from earlier work
in vivo [3] = type: in vivo, Beagle dogs; conditions: dog, in vivo
Experimental: (§1) The results and analysis for the study are presented for intravenous infusion dosing of a total dose of 10 mg/kg infused over a period of either 2 or 8 hours. Plasma levels of curcumin and its metabolite, THC were measured at timed intervals post-dosing.
(§2) Bioanalysis was performed on two sets of samples, one set that was treated with phosphoric acid and one set that was not treated with phosphoric acid. […] Values that were below the limit of quantification were assigned a value of 0.
(§3) Fifteen minutes following either the 2 hour or 8 hour infusion, blood, urine and bile samples were taken, prior to the dogs being necropsied and organs removed for the isolation of tissues. Multiple samples of tissue weighing approximately 1 gram were removed and snap frozen in the presence or absence of phosphoric acid (H3PO4). For all tissue samples, the levels of curcumin and THC were determined using a method developed by the Bioanalytical Department at Nucro-Technics. […] Values that were below the limit of quantification were assigned a value of 0. […] Tissue distribution data was analyzed using, unless stated, the data from 4 dogs and are presented as the mean±standard error (S.E.).

in vivo [4] = experiment: in vivo; parameters: species or system Beagle dogs; conditions: dog, in vivo; for concentration at 15 min post-infusion / concentration at 15 min / Kp at 2 h / Kp at 8 h: both sexes; for Kp at 2 h / Kp at 8 h: Kp [tissue]/[plasma]
Experimental: The test article will be administered to 8 Beagle dogs by intravenous infusion over two hours (Part A) or eight hours (Part B) as shown in Table 6.
as §3, with “Multiple” for “Fifteen minutes following either the 2 hour or 8 hour infusion, blood, urine and bile samples were taken, prior to the dogs being necropsied and organs removed for the isolation of tissues. Multiple”

in vivo [5] = type: in vivo, Beagle dogs; conditions: dog, in vivo, iv, 10 mg/kg
Experimental: as §1
For the 2 hour infusion, blood samples were taken at predose and 0.25, 0.5, 1.5 and at 2 hours during infusion and at 15 minutes post-infusion. For the 8 hour infusion, blood samples were taken at predose and 0.25, 0.5, 1.5, […] and at 8 hours during infusion and at 15 minutes post-infusion.
as §2
Plasma concentration vs. time profiles were analyzed using (unless otherwise stated) the data from 4 dogs. Plasma profiles for the test articles are presented as the mean data±SE of 4 dogs. Average plasma concentrations were used to perform the PK analysis. Plasma concentration vs. time profiles were analyzed and the PK parameters estimated using WinNonlin Version 5.2.1 employing the intravenous infusion model with first order elimination. Unless stated otherwise, the plasma concentration-time profiles for the test articles are presented as the mean data±SE of 4 dogs.

concentration at 15 min (in vivo [3]; both sexes, Beagle, Plasma level): 0 ng/mL
Plasma level (in vivo [3]; both, beagle, 15 min): 0 ± 0 ng/mL
concentration at 15 min post-infusion (in vivo [4]; Beagle, Tissue analysis, Liver): 28.4 ng/g
concentration at 15 min post-infusion (in vivo [4]; Beagle, Tissue analysis, Spleen): 22.9 ng/g
concentration at 15 min (in vivo [4]; Beagle, Tissue level, Brain Stem): 0.3 ng/g
concentration at 15 min (in vivo [4]; beagle, Average tissue concentration, Bladder): 0.66 ng/g
concentration at 15 min (in vivo [4]; beagle, Average tissue concentration, Brainstem): 0.45 ng/g
concentration at 15 min (in vivo [4]; beagle, Average tissue concentration, Heart): 0.47 ng/g
concentration at 15 min (in vivo [4]; beagle, Average tissue concentration, Intestinal wall): 1.14 ng/g
concentration at 15 min (in vivo [4]; beagle, Average tissue concentration, Striatum): 0.48 ng/g
Kp at 2 h (in vivo [4]; beagle, Brain Stem): 0.0081
Kp at 8 h (in vivo [4]; beagle, Brain Stem): 0.0389
Kp at 2 h (in vivo [4]; beagle, Cortex, Brain): 0.0134
Kp at 8 h (in vivo [4]; beagle, Cortex, Brain): 0.0544
Kp at 2 h (in vivo [4]; beagle, Heart): 0.0087
Kp at 8 h (in vivo [4]; beagle, Heart): 0.0503
Kp at 2 h (in vivo [4]; beagle, Hippocampus): 0.0016
Kp at 8 h (in vivo [4]; beagle, Hippocampus): 0.0007
Kp at 2 h (in vivo [4]; beagle, Intestinal Wall): 0.0206
Kp at 8 h (in vivo [4]; beagle, Intestinal Wall): 0.0564
Kp at 2 h (in vivo [4]; beagle, Kidney): 0.0161
Kp at 8 h (in vivo [4]; beagle, Kidney): 0.186
Kp at 2 h (in vivo [4]; beagle, Liver): 0.0329
Kp at 8 h (in vivo [4]; beagle, Liver): 1.9
Kp at 2 h (in vivo [4]; beagle, Lungs): 0.413
Kp at 8 h (in vivo [4]; beagle, Lungs): 16.8
Kp at 2 h (in vivo [4]; beagle, Muscle): 0.0034
Kp at 8 h (in vivo [4]; beagle, Muscle): 0.053
Kp at 2 h (in vivo [4]; beagle, Pancreas): 0.0166
Kp at 8 h (in vivo [4]; beagle, Pancreas): 0.191
Kp at 2 h (in vivo [4]; beagle, Striatum): 0.0087
Kp at 8 h (in vivo [4]; beagle, Striatum): 0.0329
Kp at 2 h (in vivo [4]; beagle, Urinary Bladder): 0.0125
Kp at 8 h (in vivo [4]; beagle, Urinary Bladder): 0.152
concentration at 15 min (in vivo [4]; beagle, Tissue analysis, Brainstem): 0.45 ng/g
concentration at 15 min (in vivo [4]; beagle, Tissue analysis, Cortex): 0.73 ng/g
concentration at 15 min (in vivo [4]; beagle, Tissue level, Cortex, Brain): 0.52 ng/g
concentration at 15 min (in vivo [4]; beagle, Tissue level, Heart): 0.49 ng/g
Average tissue concentration, Bladder (in vivo [4]; both, beagle, 15 min): 0.87 ng/gm
Average tissue concentration, Brainstem (in vivo [4]; both, beagle, 15 min): 0.57 ng/gm
Average tissue concentration, Cortex (in vivo [4]; both, beagle, 15 min): 0.80 ng/gm
Average tissue concentration, Heart (in vivo [4]; both, beagle, 15 min): 0.74 ng/gm
Average tissue concentration, Striatum (in vivo [4]; both, beagle, 15 min): 0.49 ng/gm
Tissue analysis, Brainstem (in vivo [4]; both, beagle, 15 min): 0.32
Tissue analysis, Cortex (in vivo [4]; both, beagle, 15 min): 0.52
Tissue level, Brain Stem (in vivo [4]; both, beagle, 15 min): 0.41 ng/g
Tissue level, Cortex, Brain (in vivo [4]; both, beagle, 15 min): 0.72 ng/g
Tissue level, Heart (in vivo [4]; both, beagle, 15 min): 0.67 ng/g
Kp [tissue]/[plasma], Liver (in vivo [4]; both, beagle, 8 h): 1.9047
Kp [tissue]/[plasma], Lungs (in vivo [4]; both, beagle, 8 h): 16.8289
clearance (in vivo [5]; both sexes, Beagle): 343 mL/min/kg
Cmax (in vivo [5]; both sexes, Beagle, Cmax): 15 ng/mL
MRT (in vivo [5]; both sexes, beagle): 36 min
Vd (in vivo [5]; both sexes, beagle): 12.7 L/kg
clearance (in vivo [5]; both sexes, beagle): 343 mL/min/kg
half-life (in vivo [5]; both sexes, beagle): 24 min
AUC (in vivo [5]; both sexes, beagle, AUC): 65 ng·h/mL
AUC (in vivo [5]; both sexes, beagle, AUC (estimated PK parameter)): 485 ng·h/mL
Cmax (in vivo [5]; both sexes, beagle, Cmax): 46 ng/mL
Cmax (in vivo [5]; both sexes, beagle, Cmax (estimated PK parameter)): 233 ng/mL
AUC (in vivo [5]; both, Beagle): 52 ng·h/mL
Ke (in vivo [5]; both, Beagle): 1.6 h⁻¹
SMILES: COc1cc(/C=C/C(=O)CC(=O)/C=C/c2ccc(O)c(OC)c2)ccc1O [Curcumin, 1,7-bis(4-hydroxy-3-methoxyphenyl)-1,6-heptadiene-3,5-dione, reference compound]
MPTP-induced depletion of DA and DOPAC [1]: significantly reversed
Kp values [2]: 0.06-0.25
